# Test results taken from US20160235717A1, “BENDAMUSTINE PHARMACEUTICAL COMPOSITIONS” (LUITPOLD PHARMACEUTICALS, INC., priority 2013, published 2016).
# Where a name gives a salt, the structure may show the parent alone.
# Assays:
# [1] = Dissolution of bendamustine HCl in DMSO/water at 15° C. (Example 6); type: physicochemical
# Description: 37.5 ml of water was placed in a glass beaker and mixing was initiated at about 350 rpm. 2.1266 g mannitol added and mixed for about 5 minutes. About 12.5 ml of DMSO was added and solution brought to about 15° C. 1.2672 g of bendamustine HCl added and mixed. A milky solution was the result.
# The sample was not used for analysis purposes, however, 3 ml of DMSO was added and the sample was cloudy. Another 3 ml of DMSO was added and the solution started to clear up. The addition of DMSO corresponds to about 35% DMSO.
# [2] = Water uptake of anhydrous Bendamustine HCl; type: physicochemical
# Description: Bendamustine HCl was an anhydrous form with a water content level of nmt 1.0%. The Bendamustine HCl used herein was not the Form 1 polymorph and was at least similar to an anhydrous version of the Form 2 polymorph. A sample of Bendamustine HCl anhydrous (with a thickness of about 2 mm was is saturated in water after 60 minutes and the water level reached about 4.7-4.8%. Exposing the Bendamustine HCl to atmospheric conditions for 1 hour caused the % water to increase to about 4.5%, corresponding to the monohydrate form (MW Bendamustine HCl=394.7 g/mol and H2O=18 g/mol; [(394.7+18)/394.7]100=104.6%).
# [3] = cited from earlier work
structure (smiles),measurement,setting,value
Cn1c(CCCC(=O)O)nc2cc(N(CCCl)CCCl)ccc21 [Bendamustine HCl],solubility in 75% water,"[1]; 25 mg/ml with mannitol 42.5 mg/ml in DMSO 25% v/v in water, about 15° C. (sample 6IB130709-1), a milky solution resulted",not found to be soluble
same,water level when saturated in water,"[2]; anhydrous sample, thickness about 2 mm, after 60 minutes",4.7-4.8%
same,% water after exposure to atmospheric conditions,"[2]; exposure for 1 hour, corresponds to the monohydrate form",about 4.5%
same,solubility limit in the preferred Treanda® formulation,"[3]; at 5° C., disclosed in U.S. Pat. No. 8,436,190B2",27 mg/mL
"Cn1c(CCCC(=O)O)nc2cc(N(CCCl)CCCl)ccc21 [bendamustine, 4-[5-[Bis(2-chloroethyl)amino]-1-methylbenzimidazol-2-yl]butanoic acid]",DMSO content optimal for dissolution,"[1]; at 15° C., DMSO added to sample 6IB130709-1 until the solution started to clear up",more than 35%
same,solubility in DMSO,"[3]; at 25° C., has been reported",79 mg/mL
same,solubility in water,"[3]; at 25° C., has been reported",15 mg/mL
